Legend:
[1] = test system: P388D1 cells; experiment: TNF-α secretion by P388D1 macrophage clones measured by ELISA; type: cell-based, murine; details: for Secretion of TNF-α caused by the stimulus: 1 μg/mL, overnight (18 hours), P388D1 doxycycline inducible clones; for Secretion of TNF-α: P388D1 cells stimulated with LPS or PMA
From the text: FIGS. 8a, 8b, 8c, and 8d compare the secretion of TNF-α by wild-type and kinase mutant P388D1 cells in response to activators of macrophage function or PYK2 activity. FIGS. 8a and 8b show the effect of LPS in the presence and absence of DOX on TNF-α secretion from kinase mutant (dominant negative; FIG. 8a) and wild-type (FIG. 8b) cells. FIGS. 8c and 8d show the effect of PMA in the presence and absence of DOX on TNF-α secretion from kinase mutant (FIG. 8c) and wild-type (FIG. 8d) cells. Induction of P388D1 cells in the presence of doxicycline was carried out for 48 hours followed by stimulation with LPS (1 μg/mL) or PMA (1 μg/mL) for 18 hrs. Secreted TNF-α was measured by ELISA.
TNF secretion in response to stimulation with either LPS (1 μg/mL) or PMA (1 μg/mL) by the doxycycline inducible clones is shown in FIG. 8. Induction in the presence of doxycycline was carried out for 48 hours followed by stimulation with LPS or PMA overnight (18 hours). […] Secreted TNF-α was measured by ELISA. […] Secretion of TNF-α was inhibited by herbimycin A and genestein, which are non-specific inhibitors of tyrosine phosphorylation.

[2] = target: T1, Pyk2 (Mus musculus, UniProt Q9QVP9); experiment: Tyrosine phosphorylation of Pyk2 in response to LPS stimulation in P388D1 cells (anti-Pyk2 IP, anti-phosphotyrosine 4G10 western blot); type: cell-based, murine; details: P388D1 cells pre-treated 4 hours, then stimulated with LPS for 30 minutes
T1 construct: abrogates the function of the endogenous wild-type PYK2 protein in these macrophages; endogenous in cells; host or cells: P388D1 murine macrophage cell line
T1 sequence (Q9QVP9 whole entry): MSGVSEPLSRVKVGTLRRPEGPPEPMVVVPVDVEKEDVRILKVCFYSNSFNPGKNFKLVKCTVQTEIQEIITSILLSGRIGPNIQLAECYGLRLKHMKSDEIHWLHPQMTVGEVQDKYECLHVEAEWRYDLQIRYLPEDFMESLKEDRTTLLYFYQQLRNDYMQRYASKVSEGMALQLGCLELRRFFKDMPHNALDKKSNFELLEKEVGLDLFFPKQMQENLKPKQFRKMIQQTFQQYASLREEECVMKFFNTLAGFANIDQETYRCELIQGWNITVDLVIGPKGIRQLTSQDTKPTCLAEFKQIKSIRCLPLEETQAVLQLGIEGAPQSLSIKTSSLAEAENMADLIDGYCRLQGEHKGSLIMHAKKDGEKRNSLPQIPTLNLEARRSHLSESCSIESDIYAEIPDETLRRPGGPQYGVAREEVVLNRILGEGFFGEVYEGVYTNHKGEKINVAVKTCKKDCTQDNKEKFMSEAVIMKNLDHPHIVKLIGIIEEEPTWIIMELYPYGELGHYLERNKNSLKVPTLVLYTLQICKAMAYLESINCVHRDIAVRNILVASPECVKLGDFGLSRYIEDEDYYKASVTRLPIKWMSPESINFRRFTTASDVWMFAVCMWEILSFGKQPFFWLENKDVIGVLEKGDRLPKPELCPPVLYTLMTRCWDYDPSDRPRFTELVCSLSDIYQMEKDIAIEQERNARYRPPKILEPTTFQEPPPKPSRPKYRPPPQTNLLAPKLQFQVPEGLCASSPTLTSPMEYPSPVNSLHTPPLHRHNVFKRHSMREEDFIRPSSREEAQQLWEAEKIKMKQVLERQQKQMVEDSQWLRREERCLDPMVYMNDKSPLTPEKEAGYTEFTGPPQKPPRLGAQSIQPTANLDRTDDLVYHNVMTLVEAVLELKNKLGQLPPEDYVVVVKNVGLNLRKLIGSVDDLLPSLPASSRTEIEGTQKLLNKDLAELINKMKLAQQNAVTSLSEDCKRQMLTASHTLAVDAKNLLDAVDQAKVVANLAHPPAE
Experimental: FIGS. 6a and 6b show the tyrosine phosphorylation of PYK2 in macrophage cell lines in response to LPS (lipopolysaccharide) and tyrosine kinase inhibitors. Cells were either starved overnight in 0.5% serum and stimulated with LPS for variable time intervals (FIG. 6a), or were pre-treated with either herbimycin A or genestein for 4 hours and then stimulated with LPS for 30 minutes (FIG. 6b). After stimulation, cells were washed, lysed, and immunoprecipitated with anti-PYK2 antibody. Immunoprecipitates (IP) were then analyzed by western blotting.
Cells were lysed in lysis buffer containing 50 mM N-2-hydroxyethylpiperazine-N′-2-ethanesulferic acid (HEPES pH 7.5), 150 mM NaCl, 10% glycerol, 1% Triton X-100, 1.5 mM MgCl2, 1 mM ethyleneglycol-bis (β-aminoethyl ether)-N,N,N′N′-tetraacetic acid (EGTA), 10 μg leupeptin per mL, 10 μg aprotinin per mL, 1 mM phenylmethylsulfonyl fluoride (PMSF), 200 μM sodium orthovanadate and 100 mM sodium fluoride. […] The washed immunoprecipitates were incubated for 5 min with gel sample buffer at 100° C. and analyzed by sodium dodecyl sulfate polyacrylamide gel electrophoresis (SDS-PAGE). […]
Tyrosine phosphorylation of Pyk2 in response to LPS stimulation was measured in P388D1 cells. […] Immuno-precipitates were then analyzed by western blotting. Tyrosine phosphorylated bands were detected with the anti-phosphotyrosine antibody 4G10. […]

[3] = test system: wild type macrophages; experiment: Cytoplasmic calcium release in single Fura-2 loaded adherent macrophages; type: cell-based, mice; details: wild type macrophages attached to cover slips
Experimental: Cells grown in 6-well plates were labeled for 24 h in medium-199 containing myo-[^3H]inositol(20 μCi/ml). The cells were washed once with PBS and pre-incubated for 10 min. in 2 ml of PBS containing 10 mM LiCl (PH 7.4) at 37° C. prior to the addition of chemokines. The cells were extracted with methanol/1M HCl/chloroform 1:1:1 and analyzed by high-performance liquid chromatography (HPLC) as described (Falasca, et al. (1998) EMBO J. 17:414-422). [Ca^2+] i measurements were performed in single macrophages as described (Falasca, et al. 1995).
Calcium plays an important role in the control of a variety of intracellular events as well as in the control of cell shape, and cell movement (Lawson and Maxfield, 1995). We therefore measured cytoplasmic calcium release in single cells in response to MIP1α stimulation by using quantitative fluorescence microscopy of Fura-2 loaded cells. […] Defect in calcium release may contribute towards the failure of the cells to detach at the rear end leading to impairment in cell migration since proteins that regulate the degradation of focal contact components and disassembly of F-actin require calcium for their action (Witke, et al. (1995) Cell 81:41-51; Kulkarni, et al. (1999) J. Biol Chem. 274:21265-21275).

CCCCCCCCCCCCCC(=O)O[C@@H]1[C@@H](C)[C@@]2(O)[C@@H](C=C(CO)C[C@]3(O)C(=O)C(C)=C[C@@H]23)[C@@H]2C(C)(C)[C@]12OC(C)=O [PMA, phorbol 12-myristate 13-acetate]
Secretion of TNF-α caused by the stimulus [1]: caused secretion of TNF-α

O=c1c(-c2ccc(O)cc2)coc2cc(O)cc(O)c12 [genestein]
Secretion of TNF-α [1]: inhibited | Tyrosine phosphorylation of Pyk2 [2]: diminished

CO[C@H]1[C@@H](OC)C[C@H](C)[C@@H](OC)C2=CC(=O)C=C(NC(=O)/C(C)=C/C=C\[C@H](OC)[C@@H](OC(N)=O)/C(C)=C/[C@@H]1C)C2=O [herbimycin A]
Secretion of TNF-α [1]: inhibited | Tyrosine phosphorylation of Pyk2 [2]: diminished

MIP1α: chemokine used to stimulate macrophages
Maximum increase in cytoplasmic [Ca+2] concentration [3]: approximately 300 nM

lipopolysaccharide [LPS]
Secretion of TNF-α caused by the stimulus [1]: caused secretion of TNF-α

Reference: patent US6861442B1, “PYK2 and inflammation” (Sugen, Inc., priority 1998, dated 2005)
